# Source: publication PMC6222759, “Chemical Constituents from Scindapsus officinalis (Roxb.) Schott. and Their Anti–Inflammatory Activities” (Molecules : A Journal of Synthetic Chemistry and Natural …, 2018)
# Legend:
# [1] = test system: NO production in LPS-induced Raw 264.7 cells; assay: Anti-inflammatory activity assay against NO production (Griess) in LPS-stimulated RAW 264.7 macrophages; format: cell-based, mouse; details: for IC50: Mus musculus, RAW264.7, LPS (1.0 μg/mL)-induced Raw 264.7 cells, 2 h pre-incubation, 24 h stimulation, mean ± SD, n = 3, read-out: IC50 NO (inhibitory effect on NO production); for Anti-inflammatory activity against nitric oxide production (in words): LPS-induced Raw 264.7 cells, compared with positive control dexamethasone
# Protocol: (Raw 264.7 cells were subjected to compounds 3 and 7 with six different concentrations and incubated for 2 h firstly, and then stimulated by adding LPS for 24 h. Then, Griess reagents I and II were added to cell supernatants to detect the NO production levels. The cytotoxicity against macrophage Raw 264.7 cells of compounds 3 and 7 were investigated using the MTT method; NO: Inhibition rates of NO release (%); MTT: Inhibition rates of cell viability (%)).
# The anti-inflammatory activity assay against NO production in RAW 264.7 mouse peritoneal macrophages was conducted mainly using the procedures described previously. […] After being stimulated for 24 h, 50 μL of cell supernatants were taken out from each well and mixed with an equal volume of Griess reagents I and II to detect the NO production levels by measuring absorbance at 570 nm. All experiments were performed in triplicate. The NO inhibition is calculated as the percentage reduction of LPS stimulation.
# [2] = Cytotoxicity against macrophage Raw 264.7 cells (MTT assay); details: mouse
# Protocol: (§1) The cytotoxicity against macrophage Raw 264.7 cells was investigated using the MTT assay. Briefly, after the Raw 264.7 cells were treated with the test compounds for 24 h, 50 μL of MTT (5 mg/mL) was added to each well, and the cells were incubated for an additional 4 h. After the formazan crystals formed, cell supernatants were removed and 100 μL of DMSO was added to dissolve the crystals. Absorbance for each well was analyzed in the same way as that for NO inhibition assay.
# [3] = test system: macrophage Raw 264.7 cells; assay: as above; details: MTT method; concentration of 20 μM
# Protocol: as §1
IC50 [1] [µM],SMILES,"inhibition at 24 h, 20 µM ([2]; Raw 264.7 macrophage cells) [%]",Anti-inflammatory activity against nitric oxide production (in words) [1],Cell toxicity against macrophage Raw 264.7 cells (in words) [3],"inhibition at 24 h, 20 µM [2] [%]"
> 100,"CC(C)=C[C@@H]1CC=C[C@]1(C)OC1O[C@H](CO)[C@@H](O)[C@H](O)[C@H]1O (relative stereo) [Compound 1, (rel)-(1R, 5R)-1-Methyl-5-(2-methylprop-1-en-1-yl)cyclopent-2-en-1-O-β-D-glucopyranoside]",1.8,,,
> 100,"C=CCc1ccc(OC2O[C@H](CO)[C@@H](O[C@H]3[C@H](O)[C@@H](O)[C@H](OCC4(CC)CC4)O[C@@H]3CO)[C@H](O)[C@H]2O)c(OC)c1 (stereo partly drawn) [Compound 2, 2-Methoxy-4-(prop-2-enyl)-1″-(1-ethylcyclopropyl) methanol phenyl O-β-D-glucopyranosyl-(4→4)-β-D-glucopyranoside]",-0.5,,,
12.2 ± 0.8,"COC(=O)/C=C1/C[C@H](O)[C@H](OC(=O)C=Cc2ccc(O)c(O)c2)[C@H]1O [Compound 3, (Z)-(1S,2S,5S)-2,5-Dihydroxy-3-(2-methoxy-2-oxoethylidene)cyclopentyl 3-(3,4-dihydroxyphenyl) acrylate]",4.7,moderate inhibitory effects,neither showed any cell toxicity,
> 100,"O=C(O)/C=C/c1ccc(O)c(O)c1 [Compound 4, caffeic acid]",,,,1.1
> 100,"OC[C@H]1O[C@@H](OCCc2ccccc2)[C@H](O)[C@@H](O)[C@@H]1O [Compound 5, 2-phenylethyl β-D-Glucopyranoside]",4.5,,,
> 100,"CCCCCCOC1O[C@H](CO)[C@@H](O)[C@H](O)[C@H]1O (stereo partly drawn) [Compound 6, hexyl-O-β-D-Glucopyranoside]",1.2,,,
2.2 ± 0.02,"C[C@@H]1C[C@H]2[C@@H]3CCC4=CC(=O)C=C[C@]4(C)[C@@]3(F)[C@@H](O)C[C@]2(C)[C@@]1(O)C(=O)CO [Dexamethasone, dexamethasone, reference compound]",,,,

SMILES,IC50 [1] [µM],"inhibition at 24 h, 20 µM ([2]; Raw 264.7 macrophage cells) [%]",Anti-inflammatory activity against nitric oxide production (in words) [1],Cell toxicity against macrophage Raw 264.7 cells (in words) [3],"inhibition at 24 h, 20 µM [2] [%]"
"COC(=O)c1cc(O)c(O)c(O)c1 [Compound 7, methyl gallate]",18.9 ± 0.3,,moderate inhibitory effects,neither showed any cell toxicity,2.4
